From patent US20230381314A1, “ATTENUATED CANCER CELLS AND METHODS RELATED THERETO” (priority 2020, published 2023)

Experiments:
AML model (C1498 cells) = assay: In vivo treatment of AML with adjuvant (chemo-immunotherapy); design: species or system C57BL/6J mice; conditions: leukemia-bearing mice, up to 21 days post-tumor inoculation, DOX 5 mg/kg, MPLA 20 μg
Method: AML model was established by intravenous injection of 5×10^6 C1498 cells on day 0. On day 8 and day 15, saline, LNT cell+Adjuvant, free DOX and LNT cell/DOX+Adjuvant were administrated intravenously with DOX dose of 5 mg/kg and adjuvant (monophosphoryl lipid A, MPLA) 20 μg per mouse. Specifically, MPLA was intravenously injected 10 h post-injection of LNT cell or LNT cell/DOX. The bioluminescence images of mice were captured every 3 days. The exposure time was 2 min. On day 13, 400 μL blood was collected via the orbital vein. 200 μL blood was treated with ACK buffer and centrifuged at 800 g for 8 min to obtain pellets of white blood cells. After staining with BV421-CD3, PE-CD4 and APC-CD8, the samples were analyzed by flow cytometry. Another 200 μL blood in blood serum collection tubes (BD Microtainer 365967) was centrifuged at 3000 rpm for 10 min. The upper serum was detected with the following ELISA kits: IFN-γ (BioLegend 430804) and TNF-α (BioLegend 430904).

## COc1cccc2c1C(=O)c1c(O)c3c(c(O)c1C2=O)C[C@@](O)(C(=O)CO)C[C@@H]3O[C@H]1C[C@H](N)[C@H](O)[C@H](C)O1.Cl [free DOX, Doxorubicin hydrochloride]
C1498 cells
  IC50, in vitro cytotoxicity against C1498 cells: 0.32 µg/mL
AML model (C1498 cells)
  AML progression (bioluminescence of AML cancer cells): partially inhibited
